This note sets out measurements from patent US20230055237A1, “COMPOUNDS AND METHODS FOR THE TREATMENT OF CYSTIC FIBROSIS” (Flatley Discovery Lab, LLC, priority 2019, published 2023).

This assay concerns the target T1, CFTR (Homo sapiens, UniProt P13569, DEL508-508).
T1 construct: Primary CF airway epithelial cells were obtained from the UNC Cystic Fibrosis Tissue Procurement and Cell Culture Core; host or cells: primary CF airway epithelial cells, differentiated at the air-liquid interface
As to the kind of experiment: Equivalent current assay in primary CF airway epithelial cells (NAUC, combination with 1st site corrector FDL169 or VX-809). Format: cell-based. The following applies: 37° C., 24 h. The protocol:
Primary CF airway epithelial cells were obtained from the UNC Cystic Fibrosis Tissue Procurement and Cell Culture Core. The cells are grown at 37° C. in a Heracell 150i incubator using growth media (BEGM, Fischer). […] Two days before the Ussing assay the mucus on the apical surface of the cells was aspirated after incubating with 200 μL of differentiation media for at least thirty (30) minutes. One day before the Ussing assay test compounds were added to the basolateral surface of the cells at various test concentrations dissolved in DMSO. Duplicate wells were prepared giving a n=3 or n=4 protocol.
Cells were treated for 24 hours with various combinations and concentrations of the test articles, reference standard (3 μM VX809 or 3 μM FDL169, positive control). Compounds stock solutions were prepared in DMSO and diluted 1/1000 into ALI media to their final assay concentration. Cells were treated with combination solutions (2 mL of each dilution) and incubated at 37° C. for 24 h.
For the equivalent current assay, cells on four Transwell (24-well) plates were treated. Each Transwell plate was filled with 200 μl of HBS on the apical surface and 2 ml on the basolateral surface. Plates were placed horizontally in a heated mount at 37° C., and equilibrated for several minutes. Resting current was measured for 15 min and then blocked by the apical addition of 5 μM benzamil. After 20 min, 10 μM forskolin and 1 μM VX770 were added to both the apical and basolateral side to stimulate CFTR. An increase in chloride current is seen as an upward deflection of the trace.
The raw data, current vs. time for the Ussing chamber (sampling interval: 10 s) and voltage vs. time and resistance vs. time for the equivalent current assay (sampling interval: 5 minutes) were transferred to Excel (Microsoft Office Professional, version 14.0.7106.5003) for analysis. […] This average is equivalent to the sum of the average forskolin activated and the average VX770-potentiated currents. The average current measured in vehicle (0.1% DMSO) treated cells, Iv, was subtracted from the current for the test article, ITA, or from the corrector reference standard VX809 (3 uM ISTD). For replicate measurements, the average vehicle subtracted response for the test article, was normalized to the average vehicle subtracted inhibitor response of the reference corrector VX809 (3 μM).
A second endpoint, for the equivalent current assay, evaluated was NAUC, the normalized area under the curve (AUC) measuring the response after addition of forskolin and VX770 to the time point right before the addition of the CFTR inhibitor. The AUC is effectively the average response multiplied by the duration of the response.
NAUCTA=[AUCTA−AUCV,ave]/[AUCVx809r,ave−AUCV,ave] (Equation 2).
Experiments were run with a minimum of n=4 replicates per concentration. Since the distribution for the ratio of two normal distributions is a Cauchy distribution, the median value must be used for the average and the average deviation must be used for the error of all normalized data.
E=Emin+(Emax−Emin)/(1+10^((LogEC5OS)*nH)) (Equation 3)

[1] abbreviates: test compound 10 μM in combination with 1st site corrector VX-809 (3 μM).
The mark [2] stands for this setting: test compound 3 μM in combination with 1st site corrector VX-809 (3 μM).
Where [3] appears, read: test compound 1 μM in combination with 1st site corrector VX-809 (3 μM).
The mark [4] stands for this setting: test compound 1 μM in combination with 1st site corrector FDL169 (3 μM).
[5] abbreviates: test compound 3 μM in combination with 1st site corrector FDL169 (3 μM).
The mark [6] stands for this setting: test compound 10 μM in combination with 1st site corrector FDL169 (3 μM).

T1 sequence (P13569 with tags, fused parts or gaps DEL508-508): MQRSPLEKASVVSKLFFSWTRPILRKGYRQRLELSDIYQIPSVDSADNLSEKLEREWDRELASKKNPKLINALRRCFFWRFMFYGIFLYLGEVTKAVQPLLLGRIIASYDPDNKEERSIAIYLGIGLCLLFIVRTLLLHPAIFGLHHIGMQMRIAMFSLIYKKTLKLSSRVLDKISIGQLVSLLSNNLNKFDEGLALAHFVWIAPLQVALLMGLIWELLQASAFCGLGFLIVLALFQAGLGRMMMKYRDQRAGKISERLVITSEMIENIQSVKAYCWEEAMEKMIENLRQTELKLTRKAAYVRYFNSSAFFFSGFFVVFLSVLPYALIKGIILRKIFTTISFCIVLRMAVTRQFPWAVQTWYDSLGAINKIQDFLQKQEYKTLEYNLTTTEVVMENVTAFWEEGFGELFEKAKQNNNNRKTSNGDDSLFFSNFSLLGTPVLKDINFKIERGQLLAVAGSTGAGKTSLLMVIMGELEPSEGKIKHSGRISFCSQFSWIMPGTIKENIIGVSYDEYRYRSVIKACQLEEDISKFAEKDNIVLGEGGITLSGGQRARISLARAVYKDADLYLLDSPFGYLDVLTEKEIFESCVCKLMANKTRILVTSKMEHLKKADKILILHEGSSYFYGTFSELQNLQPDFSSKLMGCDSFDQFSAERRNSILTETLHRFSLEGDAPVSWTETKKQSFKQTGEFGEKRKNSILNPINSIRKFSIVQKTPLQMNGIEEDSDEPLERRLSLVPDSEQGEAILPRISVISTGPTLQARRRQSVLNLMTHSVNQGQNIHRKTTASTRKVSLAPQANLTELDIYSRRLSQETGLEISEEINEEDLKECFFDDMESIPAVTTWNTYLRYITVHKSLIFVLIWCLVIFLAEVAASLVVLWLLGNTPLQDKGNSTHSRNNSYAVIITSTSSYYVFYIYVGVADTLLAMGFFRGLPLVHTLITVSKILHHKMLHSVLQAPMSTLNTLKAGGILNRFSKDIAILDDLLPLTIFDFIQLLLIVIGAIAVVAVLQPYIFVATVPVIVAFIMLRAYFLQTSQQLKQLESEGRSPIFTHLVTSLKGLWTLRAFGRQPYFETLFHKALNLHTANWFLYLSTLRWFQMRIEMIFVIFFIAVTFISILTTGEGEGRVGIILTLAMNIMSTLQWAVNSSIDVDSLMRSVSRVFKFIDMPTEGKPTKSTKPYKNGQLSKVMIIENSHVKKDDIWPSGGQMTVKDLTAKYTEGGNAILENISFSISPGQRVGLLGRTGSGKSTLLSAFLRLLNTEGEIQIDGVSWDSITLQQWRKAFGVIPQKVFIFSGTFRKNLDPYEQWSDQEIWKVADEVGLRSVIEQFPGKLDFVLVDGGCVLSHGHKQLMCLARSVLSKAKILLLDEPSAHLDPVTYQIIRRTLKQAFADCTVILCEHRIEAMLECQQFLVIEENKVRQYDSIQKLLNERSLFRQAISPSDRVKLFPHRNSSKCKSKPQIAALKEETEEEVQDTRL

As for `COc1cc(C(F)(F)F)cc(NC(=O)C2C3CC(F)(F)CN3C3(C(=O)Nc4c(Cl)cc(Cl)cc43)C2C(=O)O)n1` (single isomer, unassigned) [Example 80.7b.1, 5,7-dichloro-6′,6′-difluoro-1′-((6-methoxy-4-(trifluoromethyl)pyridin-2-yl)carbamoyl)-2-oxo-1′,2′,5′,6′,7′,7a′-hexahydrospiro[indoline-3,3′-pyrrolizine]-2′-carboxylic acid], the “Nauc @ 10 μM” value under setting [1] is recorded as “+ (NAUC “+” refers to an observed NAUC <140% of positive control)”.
Regarding `O=C(NCCc1ccccc1Cl)C1C2CC(F)(F)CN2C2(C(=O)Nc3c(Cl)cc(Cl)cc32)C1C(=O)O` (centres unmarked) [Example 50], the “Nauc @ 3 μM” value under setting [2] is reported as “++ (NAUC “++” refers to an observed NAUC 170-140% of positive control)”. In addition, under setting [1], the “Nauc @ 10 μM” value was “+++ (NAUC “+++” refers to an observed NAUC>170% of positive control)”.
As to `CN(CC(C)(C)c1cccc(C(C)(C)C)c1)C(=O)[C@H]1[C@H]2CC(F)(F)CN2[C@]2(C(=O)Nc3c(Cl)cc(Cl)cc32)[C@H]1C(=O)O` [Example 170], under setting [3], the “Nauc @ 1 μM” value is “+++ (NAUC “+++” refers to an observed NAUC>170% of positive control)”. In addition, the “Nauc @ 3 μM” value under setting [2] is “+ (NAUC “+” refers to an observed NAUC <140% of positive control)”. Also, the “Nauc @ 10 μM” value under setting [1] is “+ (NAUC “+” refers to an observed NAUC <140% of positive control)”.
As to `C[C@]1(OCc2ccccc2)C[C@@H]2[C@H](C(=O)N(CC3CCCC3)c3cc(Cl)cc(Cl)c3)[C@H](C(=O)O)[C@@]3(C(=O)Nc4c(Cl)cc(Cl)cc43)N2C1` [Example 94], under setting [4], the “Nauc @ 1 μM” value was “++ (NAUC “++” refers to an observed NAUC 170-140% of positive control)”. Moreover, the “Nauc @ 3 μM” value under setting [5] is recorded as “++ (NAUC “++” refers to an observed NAUC 170-140% of positive control)”.
In the case of `CN(C(=O)[C@H]1[C@H]2CC(F)(F)CN2C2(C(=O)Nc3c(Cl)cc(Cl)cc32)[C@H]1C(=O)O)c1cc(Cl)c(OC(F)F)c(Cl)c1` (some centres unmarked) [Example 290], the “Nauc @ 1 μM” value under setting [3] is given as “++ (NAUC “++” refers to an observed NAUC 170-140% of positive control)”. Moreover, the “Nauc @ 3 μM” value under setting [2] is listed as “+++ (NAUC “+++” refers to an observed NAUC>170% of positive control)”. The “Nauc @ 10 μM” value under setting [1] is listed as “+++ (NAUC “+++” refers to an observed NAUC>170% of positive control)”.
As for `CN(C(=O)[C@H]1[C@H]2CC(F)(F)CN2[C@]2(C(=O)Nc3c2ccc(Cl)c3Cl)[C@H]1C(=O)O)c1cc(Cl)cc(Cl)c1` (racemic) [Example 100, rac-(1′R,2′S,7a′R)-6,7-dichloro-1-((3,5-dichlorophenyl)(methyl)carbamoyl)-6′,6′-difluoro-2-oxo-1′,2′,5′,6′,7′,7a′-hexahydrospiro[indoline-3,3′-pyrrolizine]-2′-carboxylic acid], under setting [3], the “Nauc @ 1 μM” value is on record as “+ (NAUC “+” refers to an observed NAUC <140% of positive control)”. For the same compound, the “Nauc @ 3 μM” value under setting [2] is “+ (NAUC “+” refers to an observed NAUC <140% of positive control)”. Also, the “Nauc @ 10 μM” value under setting [1] is “+ (NAUC “+” refers to an observed NAUC <140% of positive control)”.
On to `CN(C(=O)[C@H]1[C@H]2CC(F)(F)CN2[C@]2(C(=O)Nc3c(Cl)cc(Cl)cc32)[C@H]1C(=O)O)c1cccc(-c2ccccc2)c1` [Example 161], for which the “Nauc @ 1 μM” value under setting [4] is recorded as “++ (NAUC “++” refers to an observed NAUC 170-140% of positive control)”. The “Nauc @ 3 μM” value under setting [5] is “+++ (NAUC “+++” refers to an observed NAUC>170% of positive control)”. In addition, under setting [6], the “Nauc @ 10 μM” value is given as “++ (NAUC “++” refers to an observed NAUC 170-140% of positive control)”.
Turning to `O=C(Nc1cccc(O)c1)C1C2CC(F)(F)CN2C2(C(=O)Nc3c(Cl)cc(Cl)cc32)C1C(=O)O` (centres unmarked) [Example 76.a], the “Nauc @ 10 μM” value under setting [1] was “+ (NAUC “+” refers to an observed NAUC <140% of positive control)”.
On to `CN(C(=O)[C@H]1[C@H]2CC(F)(F)CN2[C@]2(C(=O)N(C)c3c(Cl)cc(Cl)cc32)[C@H]1C(=O)O)c1cc(Cl)cc(Cl)c1` [Example 200, (1′R,2′S,3R,7a′R)-5,7-dichloro-1-((3,5-dichlorophenyl)(methyl)carbamoyl)-6′,6′-difluoro-1-methyl-2-oxo-1′,2′,5′,6′,7′,7a′-hexahydrospiro[indoline-3,3′-pyrrolizine]-2′-carboxylic acid], for which the “Nauc @ 1 μM” value under setting [4] is listed as “++ (NAUC “++” refers to an observed NAUC 170-140% of positive control)” and the “Nauc @ 1 μM” value under setting [3] is on record as “+++ (NAUC “+++” refers to an observed NAUC>170% of positive control)”. Also, the “Nauc @ 3 μM” value was “++ (NAUC “++” refers to an observed NAUC 170-140% of positive control)” under setting [5] and “+++ (NAUC “+++” refers to an observed NAUC>170% of positive control)” under setting [2]. Further, the “Nauc @ 10 μM” value is on record as “++ (NAUC “++” refers to an observed NAUC 170-140% of positive control)” under setting [6] and “+++ (NAUC “+++” refers to an observed NAUC>170% of positive control)” under setting [1].
On to `Cc1ccc(CCNC(=O)C2C3CC(F)(F)CN3C3(C(=O)Nc4c(Cl)cc(Cl)cc43)C2C(=O)O)cc1` (centres unmarked) [Example 49], for which, under setting [2], the “Nauc @ 3 μM” value is on record as “++ (NAUC “++” refers to an observed NAUC 170-140% of positive control)”. Also, the “Nauc @ 10 μM” value under setting [1] is “+++ (NAUC “+++” refers to an observed NAUC>170% of positive control)”.
As for `Cn1nc(NC(=O)[C@H]2[C@H]3CC(F)(F)CN3[C@]3(C(=O)Nc4c(Cl)cc(Cl)cc43)[C@H]2C(=O)O)c2cccnc21` [Example 123], the “Nauc @ 1 μM” value under setting [3] was “+ (NAUC “+” refers to an observed NAUC <140% of positive control)”. Also, the “Nauc @ 3 μM” value under setting [2] is on record as “+ (NAUC “+” refers to an observed NAUC <140% of positive control)”.
With `O=C(Nc1ccccc1O)C1C2CC(F)(F)CN2C2(C(=O)Nc3c(Cl)cc(Cl)cc32)C1C(=O)O` (centres unmarked) [Example 78.a], under setting [1], the “Nauc @ 10 μM” value was “+ (NAUC “+” refers to an observed NAUC <140% of positive control)”.
As to `O=C(Nc1cc(C(F)(F)F)ccn1)C1C2CC(F)(F)CN2C2(C(=O)Nc3c(Cl)cc(Cl)cc32)C1C(=O)O` (centres unmarked) [Example 11], the “Nauc @ 3 μM” value under setting [2] is given as “+++ (NAUC “+++” refers to an observed NAUC>170% of positive control)”. Moreover, the “Nauc @ 10 μM” value under setting [1] is on record as “++ (NAUC “++” refers to an observed NAUC 170-140% of positive control)”.
On the same counts, the results for `CC(=O)N1C(COCc2ccccc2)C(C(=O)Nc2cc(Cl)cc(Cl)c2)C(C(=O)O)C12C(=O)Nc1c(Cl)cc(Cl)cc12` (centres unmarked) [Example 36] are “+ (NAUC “+” refers to an observed NAUC <140% of positive control)” and “+++ (NAUC “+++” refers to an observed NAUC>170% of positive control)”.
As to `O=C(Nc1cc(Cl)cc(Cl)c1)C1C2CC(F)(F)CN2C2(C(=O)Nc3c(Cl)cc(Cl)cc32)C1C(=O)NO` (single isomer, unassigned) [Example 226a, 5,7-dichloro-N1′-(3,5-dichlorophenyl)-6′,6′-difluoro-N2′-hydroxy-2-oxo-1′,2′,5′,6′,7′,7a′-hexahydrospiro[indoline-3,3′-pyrrolizine]-1′,2′-dicarboxamide], under setting [3], the “Nauc @ 1 μM” value was “++ (NAUC “++” refers to an observed NAUC 170-140% of positive control)”. Further, the “Nauc @ 3 μM” value under setting [2] was “++ (NAUC “++” refers to an observed NAUC 170-140% of positive control)”. The “Nauc @ 10 μM” value under setting [1] is listed as “+++ (NAUC “+++” refers to an observed NAUC>170% of positive control)”.
With `O=C(Nc1cc(Cl)cc(Cl)c1)C1C(COCc2ccccc2)NC2(C(=O)Nc3c(Cl)cc(Cl)cc32)C1C(=O)O` (centres unmarked) [Example 32], under setting [2], the “Nauc @ 3 μM” value is on record as “+++ (NAUC “+++” refers to an observed NAUC>170% of positive control)”. For the same compound, the “Nauc @ 10 μM” value under setting [1] was “+++ (NAUC “+++” refers to an observed NAUC>170% of positive control)”.
As to `CC(C)(C)c1cccc(C2CC2NC(=O)[C@H]2[C@H]3CC(F)(F)CN3C3(C(=O)Nc4c(Cl)cc(Cl)cc43)[C@H]2C(=O)O)c1` (some centres unmarked) [Example 272], the “Nauc @ 1 μM” value under setting [3] is recorded as “+ (NAUC “+” refers to an observed NAUC <140% of positive control)”. For the same compound, the “Nauc @ 3 μM” value under setting [2] was “+ (NAUC “+” refers to an observed NAUC <140% of positive control)”. In addition, under setting [1], the “Nauc @ 10 μM” value is listed as “++ (NAUC “++” refers to an observed NAUC 170-140% of positive control)”.
